Assays:
Assay in all cases: relative viability (nuclei count vs DMSO), 5 days (fraction); higher = more cells survive
BEN = test system: BEN
In short: (§1)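 Lung cancer cell lines, seeded in 1536-well plates, were treated the following day by pin tool with a single drug or with five library-drug doses (not always all listed) in √10 steps on top of a fixed anchor-drug dose. Cells were fixed and nuclei stained in one step after 5 days, and nuclei were counted. Relative viability is the nuclei count for treated wells divided by that for vehicle wells, reported as medians of duplicate plates.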

EKVX = test system: EKVX
In short: as §1

HCC-15 = test system: HCC-15
In short: as §1

HCC-366 = test system: HCC-366
In short: as §1

HCC-44 = test system: HCC-44
In short: as §1

LCLC-103H = test system: LCLC-103H
In short: as §1

LOU-NH91 = test system: LOU-NH91
In short: as §1

NCI-H1355 = test system: NCI-H1355
In short: as §1

NCI-H1395 = test system: NCI-H1395
In short: as §1

NCI-H1437 = test system: NCI-H1437
In short: as §1

NCI-H1650 = test system: NCI-H1650
In short: as §1

NCI-H1651 = test system: NCI-H1651
In short: as §1

NCI-H1734 = test system: NCI-H1734
In short: as §1

NCI-H1755 = test system: NCI-H1755
In short: as §1

NCI-H1975 = test system: NCI-H1975
In short: as §1

NCI-H2023 = test system: NCI-H2023
In short: as §1

NCI-H2085 = test system: NCI-H2085
In short: as §1

NCI-H2342 = test system: NCI-H2342
In short: as §1

NCI-H358 = test system: NCI-H358
In short: as §1

NCI-H441 = test system: NCI-H441
In short: as §1

NCI-H460 = test system: NCI-H460
In short: as §1

NCI-H838 = test system: NCI-H838
In short: as §1

COc1cc(N2CCC(C(N)=O)CC2)ccc1Nc1nc(N)c(Cl)c(Nc2ccccc2S(=O)(=O)C(C)C)n1 [HG-5-88-01] + Nc1ncn([C@H]2C[C@H](O)[C@@H](CO)O2)c(=O)n1 [Decitabine] (partner 2 µM)
relative viability (BEN; first compound 0.04 µM): 0.532
relative viability (BEN; first compound 0.1265 µM): 0.738
relative viability (BEN; first compound 0.4 µM): 0.77
relative viability (BEN; first compound 1.265 µM): 0.725
relative viability (BEN; first compound 4 µM): 0.545
relative viability (EKVX; first compound 0.04 µM): 0.392
relative viability (EKVX; first compound 0.1265 µM): 0.332
relative viability (EKVX; first compound 0.4 µM): 0.389
relative viability (EKVX; first compound 4 µM): 0.345
relative viability (HCC-15; first compound 0.04 µM): 0.682
relative viability (HCC-15; first compound 0.1265 µM): 0.709
relative viability (HCC-15; first compound 0.4 µM): 0.487
relative viability (HCC-15; first compound 1.265 µM): 0.572
relative viability (HCC-15; first compound 4 µM): 0.477
relative viability (HCC-366; first compound 0.04 µM): 0.367
relative viability (HCC-366; first compound 0.1265 µM): 0.357
relative viability (HCC-366; first compound 0.4 µM): 0.436
relative viability (HCC-366; first compound 1.265 µM): 0.338
relative viability (HCC-366; first compound 4 µM): 0.343
relative viability (HCC-44; first compound 0.04 µM): 0.936
relative viability (HCC-44; first compound 0.1265 µM): 0.996
relative viability (HCC-44; first compound 0.4 µM): 0.913
relative viability (HCC-44; first compound 1.265 µM): 0.996
relative viability (HCC-44; first compound 4 µM): 0.817
relative viability (LCLC-103H; first compound 0.04 µM): 0.776
relative viability (LCLC-103H; first compound 0.1265 µM): 0.735
relative viability (LCLC-103H; first compound 0.4 µM): 0.738
relative viability (LCLC-103H; first compound 1.265 µM): 0.713
relative viability (LCLC-103H; first compound 4 µM): 0.74
relative viability (LOU-NH91; first compound 0.04 µM): 0.796
relative viability (LOU-NH91; first compound 0.1265 µM): 0.844
relative viability (LOU-NH91; first compound 0.4 µM): 0.725
relative viability (LOU-NH91; first compound 1.265 µM): 0.587
relative viability (LOU-NH91; first compound 4 µM): 0.6
relative viability (NCI-H1355; first compound 0.04 µM): 0.337
relative viability (NCI-H1355; first compound 0.1265 µM): 0.382
relative viability (NCI-H1355; first compound 0.4 µM): 0.38
relative viability (NCI-H1355; first compound 1.265 µM): 0.334
relative viability (NCI-H1355; first compound 4 µM): 0.331
relative viability (NCI-H1395; first compound 0.04 µM): 0.765
relative viability (NCI-H1395; first compound 0.1265 µM): 0.712
relative viability (NCI-H1395; first compound 0.4 µM): 0.789
relative viability (NCI-H1395; first compound 1.265 µM): 0.682
relative viability (NCI-H1395; first compound 4 µM): 0.751
relative viability (NCI-H1437; first compound 0.04 µM): 0.529
relative viability (NCI-H1437; first compound 0.1265 µM): 0.565
relative viability (NCI-H1437; first compound 0.4 µM): 0.465
relative viability (NCI-H1437; first compound 1.265 µM): 0.579
relative viability (NCI-H1437; first compound 4 µM): 0.821
relative viability (NCI-H1650; first compound 0.04 µM): 0.378
relative viability (NCI-H1650; first compound 0.1265 µM): 0.559
relative viability (NCI-H1650; first compound 0.4 µM): 0.527
relative viability (NCI-H1650; first compound 1.265 µM): 0.559
relative viability (NCI-H1650; first compound 4 µM): 0.413
relative viability (NCI-H1651; first compound 0.04 µM): 0.536
relative viability (NCI-H1651; first compound 0.1265 µM): 0.635
relative viability (NCI-H1651; first compound 0.4 µM): 0.717
relative viability (NCI-H1651; first compound 1.265 µM): 0.581
relative viability (NCI-H1651; first compound 4 µM): 0.714
relative viability (NCI-H1734; first compound 0.04 µM): 0.526
relative viability (NCI-H1734; first compound 0.1265 µM): 0.564
relative viability (NCI-H1734; first compound 0.4 µM): 0.511
relative viability (NCI-H1734; first compound 1.265 µM): 0.462
relative viability (NCI-H1734; first compound 4 µM): 0.532
relative viability (NCI-H1755; first compound 0.04 µM): 0.739
relative viability (NCI-H1755; first compound 0.1265 µM): 0.732
relative viability (NCI-H1755; first compound 0.4 µM): 0.829
relative viability (NCI-H1755; first compound 1.265 µM): 0.688
relative viability (NCI-H1755; first compound 4 µM): 0.836
relative viability (NCI-H1975; first compound 0.04 µM): 0.409
relative viability (NCI-H1975; first compound 0.1265 µM): 0.474
relative viability (NCI-H1975; first compound 0.4 µM): 0.382
relative viability (NCI-H1975; first compound 1.265 µM): 0.403
relative viability (NCI-H1975; first compound 4 µM): 0.273
relative viability (NCI-H2023; first compound 0.04 µM): 0.223
relative viability (NCI-H2023; first compound 0.1265 µM): 0.244
relative viability (NCI-H2023; first compound 0.4 µM): 0.229
relative viability (NCI-H2023; first compound 1.265 µM): 0.236
relative viability (NCI-H2023; first compound 4 µM): 0.256
relative viability (NCI-H2085; first compound 0.04 µM): 0.6
relative viability (NCI-H2085; first compound 0.1265 µM): 0.625
relative viability (NCI-H2085; first compound 0.4 µM): 0.582
relative viability (NCI-H2085; first compound 1.265 µM): 0.544
relative viability (NCI-H2085; first compound 4 µM): 0.607
relative viability (NCI-H2342; first compound 0.04 µM): 0.751
relative viability (NCI-H2342; first compound 0.1265 µM): 0.808
relative viability (NCI-H2342; first compound 0.4 µM): 0.808
relative viability (NCI-H2342; first compound 4 µM): 0.801
relative viability (NCI-H358; first compound 0.04 µM): 0.208
relative viability (NCI-H358; first compound 0.1265 µM): 0.229
relative viability (NCI-H358; first compound 0.4 µM): 0.285
relative viability (NCI-H358; first compound 1.265 µM): 0.192
relative viability (NCI-H358; first compound 4 µM): 0.125
relative viability (NCI-H441; first compound 0.04 µM): 0.235
relative viability (NCI-H441; first compound 0.1265 µM): 0.28
relative viability (NCI-H441; first compound 0.4 µM): 0.272
relative viability (NCI-H441; first compound 1.265 µM): 0.231
relative viability (NCI-H441; first compound 4 µM): 0.271
relative viability (NCI-H460; first compound 0.04 µM): 0.478
relative viability (NCI-H460; first compound 0.1265 µM): 0.493
relative viability (NCI-H460; first compound 0.4 µM): 0.494
relative viability (NCI-H460; first compound 1.265 µM): 0.578
relative viability (NCI-H460; first compound 4 µM): 0.419
relative viability (NCI-H838; first compound 0.04 µM): 0.46
relative viability (NCI-H838; first compound 0.1265 µM): 0.467
relative viability (NCI-H838; first compound 0.4 µM): 0.491
relative viability (NCI-H838; first compound 1.265 µM): 0.407
relative viability (NCI-H838; first compound 4 µM): 0.341

— the supplement of paper PMC10307832
